Experimental data as given in patent US20150105252A1, “SUBSTITUTED PYRAZOLES AS HERBICIDES” (E I DU PONT DE NEMOURS AND COMPANY, priority 2013, published 2015).

What was measured:
barnyardgrass [1] = test: Test A postemergence; type: in vivo, Echinochloa crus-galli
Procedure, shortened: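 Visual injury ratings, 0 = no effect to 100 = complete control, taken about 10 days after treatment against untreated controls. Test chemicals, in a non-phytotoxic surfactant-containing solvent, were sprayed onto soil preemergence or onto one- to two-leaf plants (2–10 cm) postemergence, in loam–sand soil under greenhouse conditions.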

ducksalad = test: Test B flood; type: in vivo, Heteranthera limosa; settings: 250 g ai/ha, visual rating on 0 to 100 scale (0 no effect, 100 complete control), 13 to 15 days
Procedure, shortened: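 Flooded-pot test: compound dosed into 3 cm of standing water above soil when plants had two leaves. Visual control ratings (0–100) versus untreated plants after 13–15 d.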

blackgrass = test: Test C preemergence; type: in vivo, Alopecurus myosuroides; settings: preemergence; for Plant response rating, Blackgrass: 125 g ai/ha, scale 0 to 100, 0 = no effect, 100 = complete control
Procedure, shortened: (§1)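 Postemergence values come from plants sprayed at the 1- to 4-leaf stage (2–18 cm) in peat moss–vermiculite medium; preemergence values from seeds treated in a loam–sand blend. Both evaluated visually against controls after 13–15 greenhouse days, scale 0–100.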

johnsongrass = test: Test C preemergence; type: in vivo, Sorghum halepense; settings: preemergence; for Plant response rating, Johnsongrass: 125 g ai/ha, scale 0 to 100, 0 = no effect, 100 = complete control
Procedure, shortened: as §1

lambsquarters = test: Test C preemergence; type: in vivo, Chenopodium album; settings: preemergence; for Plant response rating, Lambsquarters: 125 g ai/ha, scale 0 to 100, 0 = no effect, 100 = complete control
Procedure, shortened: as §1

soybean = test: Test C preemergence; type: in vivo, Glycine max; settings: preemergence; for Plant response rating, Soybean: 125 g ai/ha, scale 0 to 100, 0 = no effect, 100 = complete control
Procedure, shortened: as §1

barnyardgrass [2] = test: Test C preemergence; type: in vivo, Echinochloa crus-galli; settings: preemergence; for Plant response rating, Barnyardgrass: 125 g ai/ha, scale 0 to 100, 0 = no effect, 100 = complete control
Procedure, shortened: as §1

ryegrass, Italian = test: Test C postemergence; type: in vivo, Lolium multiflorum
Procedure, shortened: as §1

corn = test: Test C postemergence; type: in vivo, Zea mays; settings: for Plant response rating (scale of 0 to 100 where 0 is no effect and 100 is complete control), Corn: Postemergence, 31 g ai/ha, visually evaluated after 13 to 15 days; for Corn plant response rating / Plant response rating, Corn: postemergence; for Corn plant response rating: 62 g ai/ha, scale 0 to 100
Procedure, shortened: as §1

crabgrass, large = test: Test C postemergence; type: in vivo, Digitaria sanguinalis; settings: for Plant response rating (scale of 0 to 100 where 0 is no effect and 100 is complete control), Crabgrass, Large: Postemergence, 31 g ai/ha, visually evaluated after 13 to 15 days; for Crabgrass, Large plant response rating / Plant response rating, Crabgrass, Large: postemergence; for Crabgrass, Large plant response rating: 62 g ai/ha, scale 0 to 100
Procedure, shortened: as §1

pigweed = test: Test C postemergence; type: in vivo, Amaranthus retroflexus; settings: for Pigweed plant response rating / Plant response rating, Pigweed: postemergence; for Pigweed plant response rating: 62 g ai/ha, scale 0 to 100
Procedure, shortened: as §1

chickweed = test: Test C postemergence; type: in vivo, Stellaria media; settings: for Plant response rating (scale of 0 to 100 where 0 is no effect and 100 is complete control), Chickweed: Postemergence, 31 g ai/ha, visually evaluated after 13 to 15 days; for Chickweed plant response rating / Plant response rating, Chickweed: postemergence; for Chickweed plant response rating: 62 g ai/ha, scale 0 to 100
Procedure, shortened: as §1

[3] = Postemergence, 500 g ai/ha, 0 to 100 scale (0 no effect, 100 complete control)
[4] = postemergence, 125 g ai/ha, about 10 days, visual rating on 0 to 100 scale (0 no effect, 100 complete control)
[5] = 31 g ai/ha, visual rating, scale 0 to 100 (0 no effect, 100 complete control), 13 to 15 days
[6] = 62 g ai/ha, scale 0 to 100 (0 no effect, 100 complete control), 13 to 15 days
[7] = 250 g ai/ha, scale 0 to 100, 0 is no effect, 100 is complete control
[8] = Postemergence, 31 g ai/ha, visually evaluated after 13 to 15 days
[9] = postemergence, 250 g ai/ha, scale 0 to 100 (0 no effect, 100 complete control)
[10] = postemergence, 125 g ai/ha, scale 0 to 100, 0 no effect, 100 complete control
[11] = 250 g ai/ha, scale 0 to 100 (0 no effect, 100 complete control)
[12] = 125 g ai/ha, scale 0 to 100, 0 no effect, 100 complete control

In the case of `CCCNC(=O)c1cc(OCC)n(Cc2ccnc(OC(F)F)c2)n1` [Compound 136], the “Barnyardgrass plant response rating” value (barnyardgrass [1]; [3]) is reported as 90, the “Barnyardgrass plant response rating” value (barnyardgrass [1]; [4]) is reported as 70 and the “Plant response rating, Ducksalad” value (ducksalad) is reported as 80. The “Blackgrass plant response rating” value (blackgrass; [5]) was 85, the “Blackgrass plant response rating” value (blackgrass; [6]) was 90 and the “Plant response rating, Blackgrass” value (blackgrass; 13 to 15 days) was 90. For the same molecule, the “Blackgrass plant response rating” value (blackgrass; [7]) was 90, the “Johnsongrass plant response rating” value (johnsongrass; [5]) was 60 and the “Johnsongrass plant response rating” value (johnsongrass; [6]) was 85. For the same molecule, the “Plant response rating, Johnsongrass” value (johnsongrass; 13 to 15 days) was 98, the “Johnsongrass plant response rating” value (johnsongrass; [7]) was 100 and the “Lambsquarters plant response rating” value (lambsquarters; [5]) was 98. The “Lambsquarters plant response rating” value (lambsquarters; [6]) was 98, the “Plant response rating, Lambsquarters” value (lambsquarters; 13 to 15 days) was 98 and the “Lambsquarters plant response rating” value (lambsquarters; [7]) was 100. For the same molecule, the “Soybean plant response rating” value (soybean; [5]) was 45, the “Soybean plant response rating” value (soybean; [6]) was 75 and the “Plant response rating, Soybean” value (soybean; 13 to 15 days) was 95. The “Soybean plant response rating” value (soybean; [7]) was 100, the “Barnyardgrass plant response rating” value (barnyardgrass [2]; 31 g ai/ha, scale 0 to 100 (0 no effect, 100 complete control), 13 to 15 days) was 75 and the “Barnyardgrass plant response rating” value (barnyardgrass [2]; [6]) was 100. The “Plant response rating, Barnyardgrass” value (barnyardgrass [2]; 13 to 15 days) was 100, the “Barnyardgrass plant response rating” value (barnyardgrass [2]; [7]) was 100 and the “Plant response rating (scale of 0 to 100 where 0 is no effect and 100 is complete control), Ryegrass, Italian” value (ryegrass, Italian; [8]) was 5. The “Ryegrass, Italian plant response rating” value (ryegrass, Italian; postemergence, 62 g ai/ha, scale 0 to 100) was 5, the “Plant response rating, Ryegrass, Italian” value (ryegrass, Italian; [9]) was 30 and the “Plant response rating, Ryegrass, Italian” value (ryegrass, Italian; [10]) was 5. For the same molecule, the “Plant response rating (scale of 0 to 100 where 0 is no effect and 100 is complete control), Corn” value (corn) was 10, the “Corn plant response rating” value (corn) was 10 and the “Plant response rating, Corn” value (corn; [11]) was 25. For the same molecule, the “Plant response rating, Corn” value (corn; [12]) was 15, the “Plant response rating (scale of 0 to 100 where 0 is no effect and 100 is complete control), Crabgrass, Large” value (crabgrass, large) was 5 and the “Crabgrass, Large plant response rating” value (crabgrass, large) was 5. For the same molecule, the “Plant response rating, Crabgrass, Large” value (crabgrass, large; [11]) was 40, the “Plant response rating, Crabgrass, Large” value (crabgrass, large; [12]) was 40 and the “Plant response rating (scale of 0 to 100 where 0 is no effect and 100 is complete control), Pigweed” value (pigweed; [8]) was 40. For the same molecule, the “Pigweed plant response rating” value (pigweed) was 65, the “Plant response rating, Pigweed” value (pigweed; [11]) was 80 and the “Plant response rating, Pigweed” value (pigweed; [12]) was 70. The “Plant response rating (scale of 0 to 100 where 0 is no effect and 100 is complete control), Chickweed” value (chickweed) was 100, the “Chickweed plant response rating” value (chickweed) was 100 and the “Plant response rating, Chickweed” value (chickweed; [11]) was 100. The “Plant response rating, Chickweed” value (chickweed; [12]) was 100.

For `CCCc1cc(C(=O)NC2CC2)nn1Cc1ccnc(OC(F)F)c1` [Compound 205], the “Barnyardgrass plant response rating” value (barnyardgrass [1]; [3]) was 90, the “Barnyardgrass plant response rating” value (barnyardgrass [1]; [4]) was 80 and the “Plant response rating, Ducksalad” value (ducksalad) was 100. The “Blackgrass plant response rating” value (blackgrass; [5]) was 80, the “Blackgrass plant response rating” value (blackgrass; [6]) was 95 and the “Plant response rating, Blackgrass” value (blackgrass; 13 to 15 days) was 95. The “Blackgrass plant response rating” value (blackgrass; [7]) was 100, the “Johnsongrass plant response rating” value (johnsongrass; [5]) was 70 and the “Johnsongrass plant response rating” value (johnsongrass; [6]) was 80. The “Plant response rating, Johnsongrass” value (johnsongrass; 13 to 15 days) was 90, the “Johnsongrass plant response rating” value (johnsongrass; [7]) was 100 and the “Lambsquarters plant response rating” value (lambsquarters; [5]) was 85. The “Lambsquarters plant response rating” value (lambsquarters; [6]) was 95, the “Plant response rating, Lambsquarters” value (lambsquarters; 13 to 15 days) was 100 and the “Lambsquarters plant response rating” value (lambsquarters; [7]) was 100. The “Soybean plant response rating” value (soybean; [5]) was 80, the “Soybean plant response rating” value (soybean; [6]) was 85 and the “Plant response rating, Soybean” value (soybean; 13 to 15 days) was 100. For the same molecule, the “Soybean plant response rating” value (soybean; [7]) was 100, the “Barnyardgrass plant response rating” value (barnyardgrass [2]; [5]) was 85 and the “Barnyardgrass plant response rating” value (barnyardgrass [2]; [6]) was 98. For the same molecule, the “Plant response rating, Barnyardgrass” value (barnyardgrass [2]; 13 to 15 days) was 100, the “Barnyardgrass plant response rating” value (barnyardgrass [2]; [7]) was 100 and the “Plant response rating, Ryegrass, Italian” value (ryegrass, Italian; [9]) was 5. For the same molecule, the “Plant response rating, Ryegrass, Italian” value (ryegrass, Italian; [10]) was 5, the “Plant response rating (scale of 0 to 100 where 0 is no effect and 100 is complete control), Corn” value (corn) was 10 and the “Corn plant response rating” value (corn) was 10. The “Plant response rating, Corn” value (corn; [11]) was 40, the “Plant response rating, Corn” value (corn; [12]) was 20 and the “Plant response rating (scale of 0 to 100 where 0 is no effect and 100 is complete control), Crabgrass, Large” value (crabgrass, large) was 5. For the same molecule, the “Crabgrass, Large plant response rating” value (crabgrass, large) was 10, the “Plant response rating, Crabgrass, Large” value (crabgrass, large; [11]) was 65 and the “Plant response rating, Crabgrass, Large” value (crabgrass, large; [12]) was 45. The “Pigweed plant response rating” value (pigweed) was 85, the “Plant response rating, Pigweed” value (pigweed; [11]) was 100 and the “Plant response rating, Pigweed” value (pigweed; [12]) was 85. For the same molecule, the “Plant response rating (scale of 0 to 100 where 0 is no effect and 100 is complete control), Chickweed” value (chickweed) was 65, the “Chickweed plant response rating” value (chickweed) was 90 and the “Plant response rating, Chickweed” value (chickweed; [11]) was 100. The “Plant response rating, Chickweed” value (chickweed; [12]) was 98.
